BindingDB's records for doi:10.1021/np900435d (University of Florence, 2009)

Assay: Inhibition of rat intestinal maltase

SMILES | IC50
O[C@H]1[C@H](O)[C@@H](O)CN2C[C@@H](O)[C@@H](O)[C@H]12 [(-)-uniflorine A] | 12 µM
O[C@H]1[C@H]2[C@H](O)[C@H](O)CN2[C@H](O)C[C@H]1O [uniflorine B] | 4 µM
